≈ marks a conversion by molar mass, not a printed value. Read-outs that look alike come from different tables or passages of the source. No end group written: not given here.
Legend:
S. pneumoniae ATCC 27336 = assay type: cell-based, Streptococcus pneumoniae; conditions: for MIC (μg/mL) S. pneumoniae: Table 7, S. pneumoniae ATCC 27336
Procedure: Minimum Inhibitory Concentrations (MICs) were determined according to previously published protocol^31. A stock solution of the antibiotics tested was first suspended in 50% acetonitrile (ACN) at a concentration 640 μg/mL. This stock was subsequently diluted 2-fold until a final concentration 0.156 μg/mL was reached. Subsequently, 10 μl of each dilution was placed into a well on a 96 well microtiter plate. M. luteus ATCC 10240, S. pneumoniae, and B. subtilis PY79 were grown overnight in THyex at 37° C. Cultures were diluted in the morning to 0.1 OD600 and allowed to grow to 0.6 OD600. This culture was diluted a 100-fold in fresh THyex media and then 400 μl of this culture was added to 10 mL of fresh THyex. The suspension contains approximately 10^5 colony forming units (CFUs). The bacterial suspension (190 μL) was added to each well containing 10 μL of antibiotic suspension or solvent blank. […] Following the 15 minute pretreatment, 190 μL was added to each well as described above. The MIC is described as the […] concentration of antibiotic that prevented visible growth after 24 hours. […]

M. luteus ATCC 10240 = assay type: cell-based, Micrococcus luteus; conditions: for MIC (μg/mL) M. luteus: Table 7, chemically modified analogs
Procedure: Minimum Inhibitory Concentrations (MICs) were determined according to previously published protocol^31. A stock solution of the antibiotics tested was first suspended in 50% acetonitrile (ACN) at a concentration 640 μg/mL. This stock was subsequently diluted 2-fold until a final concentration 0.156 μg/mL was reached. Subsequently, 10 μl of each dilution was placed into a well on a 96 well microtiter plate. M. luteus ATCC 10240, S. pneumoniae, and B. subtilis PY79 were grown overnight in THyex at 37° C. Cultures were diluted in the morning to 0.1 OD600 and allowed to grow to 0.6 OD600. This culture was diluted a 100-fold in fresh THyex media and then 400 μl of this culture was added to 10 mL of fresh THyex. The suspension contains approximately 10^5 colony forming units (CFUs). The bacterial suspension (190 μL) was added to each well containing 10 μL of antibiotic suspension or solvent blank. […] Following the 15 minute pretreatment, 190 μL was added to each well as described above. The MIC is described as the […] concentration of antibiotic that prevented visible growth after 24 hours.
FIG. 11 illustrates the bioactivity of various core peptide mutants of mutacin 1130. The activity of the core mutant peptides is expressed as a ratio of the area of the zone of inhibition of each mutant strain to the area of the zone of inhibition of the wild-type strain against indicator strain of Micrococcus luteus. […] The deferred antagonism assay is an overlay assay of the indicator strain onto plates containing heat killed colonies of the mutacin producer strain after growing overnight. Core peptide mutants having inhibitory activity were isolated and the purified products were further evaluated by a standard minimum inhibitory concentration (MIC) assay.

S. aureus ATCC 25923 = assay: MIC/MLC assay against S. aureus; assay type: cell-based, Staphylococcus aureus; conditions: Table 11
[1] = listed as diaminoheptane conjugate

C=C1NC(=O)[C@H](Cc2c[nH]c3ccccc23)NC(=O)[C@H](NC(=O)[C@H](CCCCN)NC(=O)[C@@H](N)Cc2ccccc2)CSC[C@@H](C(=O)N[C@H]2C(=O)N3CCC[C@H]3C(=O)NCC(=O)N[C@H](C(=O)N[C@@H](C)C(=O)N[C@@H](CCCNC(=N)N)C(=O)N/C(=C\C)C(=O)NCC(=O)N[C@@H]3CSC[C@@H]4NC(=O)[C@H](Cc5ccc(O)cc5)NC(=O)[C@@H](CSC[C@@H](C(=O)NCc5ccc(Cl)c(Cl)c5)NC4=O)NC(=O)[C@H](CC(N)=O)NC(=O)[C@H](Cc4ccccc4)NC3=O)CS[C@H]2C)NC(=O)[C@H](CC(C)C)NC1=O [Mutacin 1140 - di-chlorophenylalanine]
MIC (μg/mL) S. pneumoniae (S. pneumoniae ATCC 27336; listed as di-chlorophenylalanine conjugate): 8.0 µg/mL (≈ 3.24 µM)

C=C1NC(=O)[C@H](Cc2c[nH]c3ccccc23)NC(=O)[C@H](NC(=O)[C@H](CCCCN)NC(=O)[C@@H](N)Cc2ccccc2)CSC[C@@H](C(=O)N[C@H]2C(=O)N3CCC[C@H]3C(=O)NCC(=O)N[C@H](C(=O)N[C@@H](C)C(=O)N[C@@H](CCCNC(=N)N)C(=O)N/C(=C\C)C(=O)NCC(=O)N[C@@H]3CSC[C@@H]4NC(=O)[C@H](Cc5ccc(O)cc5)NC(=O)[C@@H](CSC[C@@H](C(=O)NCCCCCCCN)NC4=O)NC(=O)[C@H](CC(N)=O)NC(=O)[C@H](Cc4ccccc4)NC3=O)CS[C@H]2C)NC(=O)[C@H](CC(C)C)NC1=O [Mutacin 1140 - diaminoheptane]
MIC (μg/mL) M. luteus (M. luteus ATCC 10240): 0.25 µg/mL (≈ 0.103 µM) | MIC (μg/mL) M. luteus (M. luteus ATCC 10240; [1]): 0.5 µg/mL (≈ 0.206 µM) | MIC (μg/mL) S. pneumoniae (S. pneumoniae ATCC 27336; [1]): 2.0 µg/mL (≈ 0.825 µM)

C=C1NC(=O)[C@H](Cc2c[nH]c3ccccc23)NC(=O)[C@H](NC(=O)[C@H](CCCCN)NC(=O)[C@@H](N)Cc2ccccc2)CSC[C@@H](C(=O)N[C@H]2C(=O)N3CCC[C@H]3C(=O)NCC(=O)N[C@H](C(=O)N[C@@H](C)C(=O)N[C@@H](CCCNC(=N)N)C(=O)N/C(=C\C)C(=O)NCC(=O)N[C@@H]3CSC[C@@H]4NC(=O)[C@H](Cc5ccc(O)cc5)NC(=O)[C@@H](CSC[C@@H](C(=O)NCc5ccc(Cl)cc5)NC4=O)NC(=O)[C@H](CC(N)=O)NC(=O)[C@H](Cc4ccccc4)NC3=O)CS[C@H]2C)NC(=O)[C@H](CC(C)C)NC1=O [Mutacin 1140 - chlorophenylalanine]
MIC (μg/mL) M. luteus (M. luteus ATCC 10240; listed as chlorophenylalanine conjugate): 1.0 µg/mL (≈ 0.411 µM)

S5A:A12S un-dehydrated: core peptide mutant of mutacin 1140, positions 5, 12 replaced by Alanine and Serine; un-dehydrated form (FKSWALCTPGCSRTGSFNSYCC; ends and bridges not checked; cysteine pairing not given here; UniProt O68586 42-63, looked up, variant S5A A12S)
S. aureus ATCC 25923 MIC (S. aureus ATCC 25923): 16 micrograms per milliliter | S. aureus ATCC 25923 MLC (S. aureus ATCC 25923): 16 micrograms per milliliter | M. luteus ATCC 10240 MIC (M. luteus ATCC 10240; Table 11): 0.125 micrograms per milliliter | M. luteus ATCC 10240 MLC (M. luteus ATCC 10240; Table 11): 0.25 micrograms per milliliter | S. pneumonia ATCC 27336 MIC (S. pneumoniae ATCC 27336; Table 11): 0.125 micrograms per milliliter | S. pneumonia ATCC 27336 MLC (S. pneumoniae ATCC 27336; Table 11): 0.125 micrograms per milliliter

C=C1NC(=O)[C@H](Cc2c[nH]c3ccccc23)NC(=O)[C@H](NC(=O)[C@H](CCCCN)NC(=O)[C@@H](N)Cc2ccccc2)CSC[C@@H](C(=O)N[C@H]2C(=O)N3CCC[C@H]3C(=O)NCC(=O)N[C@H](C(=O)N[C@@H](C)C(=O)N[C@@H](CCCNC(=N)N)C(=O)N/C(=C\C)C(=O)NCC(=O)N[C@@H]3CSC[C@@H]4NC(=O)[C@H](Cc5ccc(O)cc5)NC(=O)[C@@H](CSC[C@@H](C(=O)NC)NC4=O)NC(=O)[C@H](CC(N)=O)NC(=O)[C@H](Cc4ccccc4)NC3=O)CS[C@H]2C)NC(=O)[C@H](CC(C)C)NC1=O [Mutacin 1140 - methylamine]
MIC (μg/mL) M. luteus (M. luteus ATCC 10240): 0.125 µg/mL (≈ 0.0538 µM) | MIC (μg/mL) S. pneumoniae (S. pneumoniae ATCC 27336): 0.5 µg/mL (≈ 0.215 µM)
